{"source": "paper PMC9437101", "about": "“Curcumin-based-fluorescent probes targeting ALDH1A3 as a promising tool for glioblastoma precision surgery and early diagnosis” (Communications Biology, 2022)", "key": {"ALDH1A3": {"molecular_target": "T1, ALDH1A3 (Homo sapiens, UniProt P47895)", "T1 construct": "E. coli BL21 (DE3) were transformed with the full-length expression vector of each isoform; His-tag; made in house; host or cells: E. coli BL21 (DE3)", "T1 sequence (P47895 1-512)": "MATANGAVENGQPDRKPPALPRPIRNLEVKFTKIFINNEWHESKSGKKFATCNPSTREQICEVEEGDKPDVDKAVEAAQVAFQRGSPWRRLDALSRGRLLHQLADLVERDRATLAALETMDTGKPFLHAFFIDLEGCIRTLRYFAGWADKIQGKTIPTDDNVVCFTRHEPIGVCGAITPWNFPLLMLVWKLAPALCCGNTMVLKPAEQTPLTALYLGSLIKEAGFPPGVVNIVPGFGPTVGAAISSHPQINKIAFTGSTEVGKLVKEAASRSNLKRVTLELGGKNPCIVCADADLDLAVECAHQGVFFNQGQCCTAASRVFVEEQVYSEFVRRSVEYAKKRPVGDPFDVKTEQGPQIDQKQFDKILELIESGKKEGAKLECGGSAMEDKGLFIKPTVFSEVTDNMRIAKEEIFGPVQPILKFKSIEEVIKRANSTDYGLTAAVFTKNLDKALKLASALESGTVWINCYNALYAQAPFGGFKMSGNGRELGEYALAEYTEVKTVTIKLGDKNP", "assay": "IC50 and Ki evaluation, enzymatic inhibition with acetaldehyde", "assay_type": "biochemical", "description": "Initially, the inhibitory activities of our fluorescent probes were screened at a fixed concentration of 50 μM using a Tecan Sunrise 96 Multiplate Reader with Greiner Bio-One 96-UV-Transparent Microplates. The analysis was performed in triplicate in a total volume of 100 μl per well containing 20 mM Tris HCl pH 8.0, 1 mM β-mercaptoethanol, 150 mM KCl, 500 μM NAD^+, […], 2.8 μM hALDH1A and 20 mM acetaldehyde. Afterwards, the inhibitory potency of the fluorescent probes was further investigated, evaluating the IC50 parameter. The enzymatic inhibition assays were performed in triplicate in a total volume of 100 μl per well containing 20 mM Tris HCl pH 8.0, 1 mM β-mercaptoethanol, 150 mM KCl, 500 μM NAD^+, 2.8 μM hALDH1A and 20 mM acetaldehyde in the presence of different probe concentrations, from 200 μM to 1.5625 μM. The DMSO final concentration allowed was up to 15%. Only for ALDH1A3 in complex with Probe 10, the Ki affinity parameter was calculated by performing the analysis in triplicate in a total volume of 100 μl per well containing 20 mM Tris HCl pH 8.0, 1 mM β-mercaptoethanol, 150 mM KCl, 500 μM NAD^+ and 2.8 μM ALDH1As. Due to chemical nature of Probe 10 and Probe 11, we set up the enzymatic assay assuming a competitive inhibition using different compounds concentration, from 200 μM to 1 μM, and different acetaldehyde concentrations, from 20 mM to 2.5 mM. Each reaction mix was preincubated for 10 min at 25 °C before the analysis. The catalytic activity was measured by monitoring the absorbance at 340 nm (εNADH = 6220 M^−^1 cm^−1) for 30 min at 25 °C and the inhibitory parameters were calculated by processing the raw data on SigmaPlot[53]."}, "[1]": {"tested_on": "GL261 glioblastoma in left striatum", "assay": "In vivo labeling of orthotopic GL261 glioblastoma after i.p. injection", "parameters": "species or system mice", "settings": "6 days after implantation, 6 h after injection, probe 10 18 μg, probe 11 5 μg", "description": "We used in vitro and in vivo cells from a mouse high grade glioma cell line, GL261[56]. Briefly, ten 2- to 3-month-old female C57BlC mice were stereotactically implanted under deep general anesthesia (isoflurane supplemented with nitrous oxide) with 1 × 10^5 GL261 glioblastoma cells. The cells were stereotactically inoculated through a burr hole by a Hamilton syringe into the left striatum (coordinates: 1 mm anteroposterior and 1 mm lateral from bregma, at a depth of 3 mm). All experimental procedures were conducted in accordance with the European Communities Council Directive of the 24th of November 1986 (86/609 EEC), with the Recommendation 18/06/2007, Dir. 2010/63/UE and with the Italian law for care and use of experimental animals (DL116/92) and were approved by the Italian Ministry of Health (prot. E669C.15) and by the Bioethical Committee of the University of Turin. All animals were housed under a 12-h light-dark cycle in an environmentally controlled room. All experiments were designed to minimize the numbers of animals used and their discomfort. In each experiment, animals with tumors were allocated to two groups and i.p. injected with probe 10 (18 μg) or probe 11 (5 μg). […] Quantitative and phenotypic evaluations were made on the images acquired with a Leica TCS SP5 confocal microscope. […]"}}, "data": [{"smiles": "CCOC(=O)Cn1cc(COc2ccc(/C=C/C(=O)/C=C(O)/C=C/c3ccc(O)c(OC)c3)cc2OC)nn1", "note": "[Probe 11]", "values": [{"measurement": "inhibition of ALDH1A3", "setting": "ALDH1A3", "result": "no inhibitory effect"}, {"measurement": "labelling of the growing tumor in vivo", "setting": "[1]", "result": "does not penetrate to any appreciable level the tumor cells in vivo"}]}, {"smiles": "COc1cc(/C=C/C(O)=C/C(=O)/C=C/c2ccc(OCc3cn(CCOc4ccc(C=O)cc4)nn3)c(OC)c2)ccc1O", "note": "[Probe 10]", "values": [{"measurement": "inhibition of ALDH1A3", "setting": "ALDH1A3", "result": "strongly inhibited"}, {"measurement": "mechanism of action (inhibition)", "setting": "ALDH1A3", "result": "competitive"}, {"measurement": "Ki", "setting": "ALDH1A3; acetaldehyde substrate, full competitive model", "result": 880, "unit": "nM"}, {"measurement": "labelling of the growing tumor in vivo", "setting": "[1]", "result": "only Probe 10 was able to selectively label the growing tumor"}]}]}
